Measurements taken from US12257339B2, “Phytocomplex and extract of a meristematic cell line selected from a plant belonging to the genus Rosa” (AETHERA BIOTECH S.R.L., priority 2019, dated 2025).

Assay: Antioxidant activity, DPPH method
Format: biochemical
Settings: methanol extract/solution; absorbance at 517 nm
Protocol: The assay of antioxidant activity was performed using the DPPH method. The assay with the DPPH (2,2-diphenyl-1-picryl-hydrazyl) radical has the aim of evaluating, in vitro, the antioxidant activity of the line of Rosa […] vis-à-vis a stained stable radical and measuring its disappearance by spectrophotometry. […] The Rc-F2P homogenate of meristematic cells of Rosa […] extracted in methanol and placed in an ultrasonic bath for 20 minutes. Various aliquots of solution were taken and they were added to a same amount of DPPH solution and brought to volume with methanol, so as to evaluate the antioxidant capacity of the sample at different concentrations. The results are expressed as EC50, i.e. as the concentration of the Rc-F2P phytocomplex capable of decreasing the initial absorbance of the radical at 517 nm by 50%. The result is then compared with that obtained from a methanol solution of ascorbic acid, used as a reference. The lower the EC50, the greater the antioxidant capacity.

EC50 (concentration decreasing the initial absorbance of the DPPH radical at 517 nm by 50%): 3.19 ± 0.16 µg/mL
SMILES: O=C1O[C@H]([C@@H](O)CO)C(O)=C1O [Ascorbic acid, ascorbic acid]
